From patent US20250213547A1, “METHODS OF TREATING NEUROLOGICAL DISEASES” (priority 2022, published 2025)
Where two headings read alike, the source gives them in different places.

Assays:
[1] = both, human, in vivo
Protocol: The study enrolled 48 subjects in the single rising dose study. Subjects were sorted into six cohorts and randomly assigned to treatment or placebo groups.
A prior study of soticlestat dosing in dogs guided the safety margin of minimal and maximal single dose selection for human subjects. An initial dosage of 10 mg provided a 44-fold safety margin relative to the maximum safe dosage in dogs. […] Each dose trial contained two placebo subjects. Ascending doses were tested in 2 sentinel subjects at a time to determine safety and tolerability before including the full cohort.
The mean values in table 6 with the superscript “a” were derived from n=3 subjects and values with superscript “b” were derived from n=4 subjects.

[2] = Healthy Japanese subjects, Part 1 (single dose 200, 600, 1200 mg tablets): PK of TAK-935 and M-I; assay type: in vivo, human; conditions: plasma; for Vd/F: read-out: Vz/F; for half-life: read-out: t1/2z (terminal disposition phase half-life) (converted); for AUC: read-out: Mean AUC24
Protocol: (§1) This study consisted of 2 parts, and was a randomized, double-blind, placebo-controlled study to assess safety, tolerability, and PK and PD of TAK-935 when administered orally in healthy Japanese subjects.
On Day 1 of each dose level, a single dose of TAK-935 or placebo was administered, and safety, PK and PD were evaluated.
After the screening visit, eligible participants checked—in on Day-2. On Day 1, eligible participants were randomized 6:2 to TAK-935 or placebo in each dose group in double-blinded fashion. No stratification variables were used for randomization. On the same day, study drug was administered by oral administration of single dosing of TAK-935 to each cohort at each dose level. The subjects were discharged on Day 3. Intensive PK samplings were performed from Day 1 to Day 3.
Subjects received a single dose of TAK-935 or placebo of 200 mg, 600 mg, or 1200 mg with 150 mL of water, after fasting for at least 10 hours and remained fasted until 4 hours after dosing.
Blood samples for PK analysis of TAK-935 and its metabolites (M-I) were collected into blood collection tubes (vacutainer) containing the anticoagulant K2EDTA (Table 40e and Table 40f).
The PK parameters of TAK-935 and its metabolites (M-I) were determined from the concentration-time profiles for all evaluable subjects. Actual sampling times, rather than scheduled sampling times, were used in all computations involving sampling times. The following PK parameters were calculated from plasma concentrations of TAK-935 and its metabolites (M-I), unless otherwise specified: […]

[3] = test system: seizure frequency in pediatric patients with Dravet syndrome or Lennox-Gastaut syndrome; experiment: ELEKTRA: percent change in seizure frequency from baseline; assay type: in vivo, human; conditions: for Number of patients with 25% reduction in seizures (responders) / Number of patients with 50% reduction in seizures (responders) / Number of patients with 75% reduction in seizures (responders) / Number of patients with 100% reduction in seizures (responders): maintenance period; for Median percent change in seizure frequency from baseline / Range of percent change in seizure frequency from baseline / seizure frequency change from baseline versus placebo: ELEKTRA; for Median percent change in seizure frequency from baseline / Range of percent change in seizure frequency from baseline: N 64; for seizure frequency change from baseline versus placebo: pediatric DEE patients
Source text: Other inclusion criteria were body weight ≥10 kg, currently taking a fixed dosage of 1 to 4 antiseizure medications, and failure to remain seizure free after trying at least two antiseizure medications. Convulsive seizures include focal to bilateral tonic-clonic with impaired awareness, hemi-clonic, simultaneous bilateral clonic, and generalized tonic-clonic seizures. Drop seizures can involve the entire body, trunk, or head which leads to falling. […] Approximately 126 patients ages ≥2 and ≤17 years were enrolled in the study. The study included two main phases, a 4-6 week screening and baseline period, and a 20-week treatment period. Patients received doses twice a day in a tablet formulation. The starting dose was adjusted according to the patient's body weight (Table 17).
During the first 8 weeks of treatment patient dosing was a titrated for individual optimization. The remaining 12-weeks of treatment consisted of a maintenance phase. The study began with treating patients ≥9 years of age for one month before treating younger patients. Blood was collected for PK analysis on the first dosage day within one hour of the morning dose, and 30 minutes, and 1, 2, 3, and 4 hours post-dose. Subsequent blood sampling took place before the morning dose and 30 minutes post-dose. Blood samples were obtained at scheduled times for determining PK profile and Tmax, which is the time Cmax was reached. A patient's seizure frequency was recorded before and during the trial to calculate percent change from baseline.
The ELEKTRA study is described in the specification and in examples 12 and 13. […] Statistical significance was computed using a Rank Transformed Analysis of Covariance (ANCOVA) with a 2-side p-value, while adjusting for baseline seizure frequency and indication.

[4] = Healthy Japanese subjects: safety and tolerability; assay type: in vivo, human
Source text: Primary Objective: To evaluate the safety and tolerability of TAK-935 in healthy Japanese subjects when administered as single oral dose or multiple oral doses with titration. Secondary Objective: To evaluate the PK of TAK-935 in healthy Japanese subjects when administered as single oral dose or multiple oral doses with titration.
as §1
The primary endpoint of the study included: Safety endpoint: Percentage of subjects who experience at least 1 TEAE Secondary endpoints included:
• Laboratory tests. • Vital signs. • ECG parameters.

[5] = TAK-935 200 mg single dose, mean
[6] = TAK-935 600 mg single dose, mean
[7] = TAK-935 1200 mg single dose, mean
[8] = human, oral, TAK-935 200 mg single dose, mean
[9] = human, oral, TAK-935 600 mg single dose, mean
[10] = human, oral, TAK-935 1200 mg single dose, mean
[11] = human, oral, TAK-935, single dose 200 mg
[12] = human, oral, TAK-935, single dose 600 mg
[13] = human, oral, TAK-935, single dose 1200 mg
[14] = Dravet syndrome, Weeks 9-20, N 24
[15] = multiple doses 100-300 mg BID, TAK-935 group

O=C(c1cccnc1-c1ccncc1)N1CCC(O)(Cc2ccccc2)CC1 [soticlestat]
number of TEAEs reported [1]: 29 TEAEs | CL/F [2, 5]: 470.8 L/h | Lambda z [2, 5]: 0.1608 h⁻¹ | AUC∞ [2, 6]: 3917 ng·h/mL | CL/F [2, 6]: 178.4 L/h | Lambda z [2, 6]: 0.1634 h⁻¹ | Tmax ([2]; TAK-935 600 mg single dose, median): 30 min | CL/F [2, 7]: 119.8 L/h | Lambda z [2, 7]: 0.1922 h⁻¹ | AUC(0-inf) [2, 8]: 720 ng·h/mL | AUC(0-t) [2, 8]: 695 ng·h/mL | Vd/F [2, 8]: 4260 L | half-life [2, 8]: 353 min | AUC(0-t) [2, 9]: 3860 ng·h/mL | Vd/F [2, 9]: 2340 L | half-life [2, 9]: 522 min | AUC(0-inf) [2, 10]: 11400 ng·h/mL | AUC(0-t) [2, 10]: 11400 ng·h/mL | Vd/F [2, 10]: 769 L | half-life [2, 10]: 304 min | Tmax ([2]; human, oral, 200 mg, TAK-935 200 mg single dose, median, read-out: tmax): 45 min | Tmax ([2]; human, oral, 1200 mg, TAK-935 1200 mg single dose, median, read-out: tmax): 30 min | Tmax ([2]; human, oral, 1200 mg, TAK-935, single dose 200, 600, 1200 mg, read-out: Tmax (median), range): 30 to 45 min | Cmax [2, 11]: 850 ng/mL | AUC [2, 11]: 698 ng·h/mL | Cmax [2, 12]: 3280 ng/mL | AUC [2, 12]: 3860 ng·h/mL | Cmax [2, 13]: 10200 ng/mL | AUC [2, 13]: 11300 ng·h/mL | Median percent change in convulsive seizure frequency per 28 days from baseline [3, 14]: −36.5% | Range of percent change in convulsive seizure frequency per 28 days from baseline [3, 14]: (−100 to 84.1) % | Number of patients with 25% reduction in seizures (responders) ([3]; Dravet syndrome, N 24): 66.7 | Number of patients with 50% reduction in seizures (responders) ([3]; Dravet syndrome, N 24): 41.7 | Number of patients with 75% reduction in seizures (responders) ([3]; Dravet syndrome, N 24): 20.8 | Number of patients with 100% reduction in seizures (responders) ([3]; Dravet syndrome, N 24): 8.3 | Median percent change in seizure frequency from baseline ([3]; Weeks 0-20): −30.05% | Range of percent change in seizure frequency from baseline ([3]; Weeks 0-20): (−100-347.5) % | Median percent change in seizure frequency from baseline ([3]; Weeks 9-20): −27.76% | Range of percent change in seizure frequency from baseline ([3]; Weeks 9-20): (−100 to 160.6) % | Median percent change from baseline in drop seizure frequency per 28 days ([3]; Lennox-Gastaut syndrome, Weeks 9-20, N 40): −18.46% | Number of patients with 25% reduction in seizures (responders) ([3]; Lennox-Gastaut syndrome, N 40): 42.5 | Number of patients with 50% reduction in seizures (responders) ([3]; Lennox-Gastaut syndrome, N 40): 27.5 | Number of patients with 75% reduction in seizures (responders) ([3]; Lennox-Gastaut syndrome, N 40): 10 | Number of patients with 100% reduction in seizures (responders) ([3]; Lennox-Gastaut syndrome, N 40): 5 | seizure frequency change from baseline versus placebo [3]: highly significant | seizure frequency change from baseline versus placebo ([3]; listed as Soticlestat): significantly decreased seizure frequency | deaths, SAEs, TEAEs leading to discontinuation ([4]; healthy Japanese subjects): No deaths, SAEs, or TEAEs leading to study drug discontinuation | intensity of TEAEs ([4]; healthy Japanese subjects): All of the TEAEs were mild | subjects who experienced TEAEs [4, 15]: 5 subjects | subjects with drug-related TEAEs [4, 15]: 3 subjects | tolerability ([4]; single dose up to 1200 mg and multiple doses 100 to 300 mg BID): well tolerated
